Source: patent publication US10857245B2, “Diagnostic imaging agent for early bone metastasis from cancer” (NIHON MEDI-PHYSICS CO., LTD., priority 2015, dated 2020)

Experiments:
[1] = test system: bone metastasis from rat breast cancer cell line MRMT-1; experiment: Autoradiography in rat model of osteolytic bone metastasis from breast cancer; assay type: in vivo; conditions: limb transplanted with MRMT-1 (right hind limb), day 12 to 14 after transplantation; tail vein; sacrifice after 30 minutes (^99mTc-HMDP 2 hours)
Experimental: A rat breast cancer cell line MRMT-1 was obtained from RIKEN BioResource Center. MRMT-1 was subcultured using a medium RPMI1640 (manufactured by Life Technologies Japan Ltd.) with 10% fetal bovine serum (American Type Culture Collection), 100 U/mL penicillin (manufactured by Life Technologies Japan Ltd.), and 0.1 mg/mL streptomycin (manufactured by Life Technologies Japan Ltd). On the day of transplantation, the medium in a culture vessel was removed and Trypsin-EDTA solution (manufactured by Life Technologies Japan Ltd.) maintained at 37° C. was added to the culture vessel, which was left to stand at 37° C. for about 5 minutes. After MRMT-1 was detached from the surface of the culture vessel, the above-mentioned medium was added to the culture vessel in an amount equal to that of Trypsin-EDTA solution. MRMT-1 was precipitated by centrifugation (800 rpm, 5 min) and its supernatant was removed, and a cell suspension in which MRMT-1 was suspended in Hank's buffer (manufactured by Life Technologies Japan Ltd.) at a concentration of 2.5×10^5 cells/mL was then produced.
An anti-inflammatory analgesic, Metacam 0.5% Solution for Injection (manufactured by Boehringer Ingelheim Vetmedica Japan Co., Ltd.) was subcutaneously injected into the groin of the right hind limb of 9-week-old male SD rat (Japan SLC, Inc.) at a rate of 0.2 mg/kg under isoflurane (manufactured by Mylan) anesthesia, and the skin in the groin was then incised. Next, the saphenous artery, the saphenous vein and the nerve parallel thereto were removed from muscles and isolated, and a surgical suture (3-0) was passed under the saphenous artery in the portion distal to the popliteal artery bifurcation. In addition, tissues around the superficial epigastric artery bifurcation were removed and a surgical suture (3-0) was passed under the femoral artery between the superficial epigastric artery bifurcation and the popliteal artery bifurcation (the portion slightly distal to the superficial epigastric artery bifurcation). Subsequently, a few drops of Papaverine Hydrochloride Injection 40 mg (manufactured by Nichi-Iko Pharmaceutical Co., Ltd.) was added dropwise around the saphenous artery to relax vascular smooth muscle, and each end of the surgical suture passed under the saphenous artery and the femoral artery was picked up with forceps, and the saphenous artery and the femoral artery were lifted to compress the arteries. A cotton swab was put under the saphenous artery to retain the saphenous artery, and an injection needle was inserted from the distal portion of the saphenous artery in the central direction, and MRMT-1 suspension (0.1 mL) was slowly injected. […]

[2] = test system: bone metastasis from breast cancer cells (MRMT-1); experiment: Triple tracer autoradiography in rat models of intertrabecular and osteolytic bone metastasis from breast cancer; assay type: in vivo; conditions: intertrabecular model day 6 and day 8, osteolytic model day 11 after transplantation; three tracers in an identical rat
Experimental: MRMT-1 suspension was prepared in the same way as the MRMT-1 suspension prepared in Example 1.
A model of intertrabecular bone metastasis was prepared in the same way as the rat model of osteolytic bone metastasis prepared in Example 1 except that a MRMT-1 suspension was injected into right and left saphenous arteries of the 12-week old male SD rat (Japan SLC, Inc.), which was used for the following experiment at day 6 or day 8 after the transplantation. The lesion appeared only in right hind limb of the model at day 6 after the transplantation and left limb of the model at day 8 after the transplantation.
A model of osteolytic bone metastasis was prepared in the same way as the rat model of osteolytic bone metastasis prepared in Example 1 except that the model was produced from 12-week old male SD rat (Japan SLC, Inc.), and used for the following experiment at day 11 after the transplantation. […]

[3] = test system: bone metastasis from prostate cancer; experiment: PET/CT imaging of patient with prostate cancer, compared with bone scintigraphy and whole body contrast enhanced CT; conditions: untreated patient with prostate cancer; 263.1 MBq intravenously; whole body PET finished by 30 minutes
[4] = test system: bone metastasis from breast cancer; conditions: human, in vivo; cited from earlier work

Compound	accumulation in bone metastasis in the osteolytic lesion area (autoradiogram, arrow A) [1]	accumulation in bone metastasis prior to the formation of osteolytic lesion, not detectable in X-ray image (autoradiogram, arrow B) [1]	accumulation in the early focal site of bone metastasis (autoradiogram) [2]	visualization of lesions which were not visualized on bone scintigraphy and whole body contrast enhanced CT [3]	combined sensitivity of all sites [4] [%]	detection rate of osteoblastic bone metastasis [4] [%]	detection rate of osteolytic bone metastasis [4] [%]
N[14C]1(C(=O)O)CC(F)C1 (stereo not drawn) [^14C-fluciclovine, trans-1-amino-3-fluorocyclobutane-1-[^14C]carboxylic acid]	accumulated	also accumulated	accumulated				
N[C@]1(C(=O)O)C[C@@H](F)C1 [^18F-fluciclovine, trans-1-amino-[^18F]fluorocyclobutanecarboxylic acid]				visualized			
technetium[^99mTc]hydroxymethylene diphosphonate [^99mTc-HMDP]	observed in neither	observed in neither	no accumulation		78.2	100	70.0
